# Data: US20170296459A1, “METHOD OF IMPROVING THE APPEARANCE OF PERIORBITAL DYSCHROMIA” (The Procter & Gamble Company, priority 2016, published 2017)
# System: B16-F1 mouse melanoma cell line
# Assay: B16 melanin synthesis inhibition assay
# Format: cell-based
# Details: B16-F1 cells, OD at 410 nm
# Protocol: In this example, a commercially available B16-F1 mouse melanoma cell line from American Tissue Culture Collection, Virginia, USA was employed in a conventional melanin synthesis inhibition assay. The cell culture medium used in the assay is 500 mL of Dulbecco's Modified Eagle's Medium (DMEM), 50 mL Fetal Bovine Serum (FBS), and 5 mL of penicillin-streptomycin liquid. B16-F1 cells that are cultured in this medium and grown to greater than 90% confluency will synthesize melanin. While not intending to be bound by any theory, it is hypothesized that the melanin synthesis is stimulated by the culture medium and/or stress induced by growth to a high confluency. […] Equipment used in the assay include a CO2 incubator, such as a Forma Series Model 3110 by Therma Scientific, Massachusetts, USA; a hemocytometer, such as a Bright Line model by Hauser Scientific, Pennsylvania, USA; and a UV-Visible Spectrum Plate Reader, such as a SpectraMax250 from Molecular Devices, California, USA. […] Day 3: The cells from the T-150 flask are trypsinized, and the concentration of cells is determined using the hemacytometer. […] Read the 96 well plate using the UV-Vis Plate Reader at 410 nm to optically measure the amount of melanin produced between wells that are treated with the fava bean extract and control wells that are not. […] The concentration of test agent needed to provide the IC 50 is recorded.
row,SMILES,Concentration Needed for IC 50 [v/v]
1,Oc1ccc(OC2CCCCO2)cc1 (centres unmarked) [Deoxyarbutin],0.008
2,O=c1cc(CO)occ1O [Kojic Acid],0.01
